From patent US6608086B2, “Dihydropyridines and new uses thereof” (Synaptic Pharmaceutical Corporation, priority 1993, dated 2003) come the findings set out here.

Molecules are shown by their SMILES. Counter-ions that a name gives are not always drawn. Like-named read-outs stand apart in the source and are kept apart here.

Experiment [1] concerns the target T1, L-type calcium channel (Rattus norvegicus, UniProt P22002).
T1 construct: membrane fragments of rat cardiac muscle; from tissue; host or cells: rat cardiac muscle membranes
As to the kind of experiment: Competition binding of [3H]nitrendipine to membrane fragments of rat cardiac muscle.

In experiment [2] the target is T2, α2A receptor (Homo sapiens, UniProt P08913).
T2 construct: host or cells: LM(tk-) cells, line L-α2A
T2 sequence (P08913 1-465): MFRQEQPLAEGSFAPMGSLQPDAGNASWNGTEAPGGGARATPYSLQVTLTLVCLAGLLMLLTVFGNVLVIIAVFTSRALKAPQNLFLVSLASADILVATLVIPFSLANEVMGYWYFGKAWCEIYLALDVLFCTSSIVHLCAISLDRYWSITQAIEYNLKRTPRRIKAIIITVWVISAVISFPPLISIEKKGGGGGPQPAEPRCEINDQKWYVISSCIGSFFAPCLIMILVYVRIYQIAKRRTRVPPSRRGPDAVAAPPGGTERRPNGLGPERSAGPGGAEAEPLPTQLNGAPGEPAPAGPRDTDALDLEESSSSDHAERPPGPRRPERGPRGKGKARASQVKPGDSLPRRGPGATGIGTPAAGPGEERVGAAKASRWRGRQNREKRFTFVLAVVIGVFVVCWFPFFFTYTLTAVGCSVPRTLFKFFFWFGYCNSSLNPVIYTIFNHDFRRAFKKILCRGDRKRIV
In words: Competition binding, [3H]rauwolscine, human α2A receptor. The essentials:
(§1)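 Cell lysates from stably transfected LM(tk−) lines are resuspended in 25 mM glycylglycine (pH 7.6 at room temperature), incubated to equilibrium with 0.5 nM [3H]rauwolscine plus competitor, then filtered through GF/B filters; 10 μM phentolamine defines nonspecific binding.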

Experiment [3] has as its target T3, α2C receptor (Homo sapiens, UniProt P18825).
T3 construct: host or cells: LM(tk-) cells, line L-α2C
T3 sequence (P18825 1-462): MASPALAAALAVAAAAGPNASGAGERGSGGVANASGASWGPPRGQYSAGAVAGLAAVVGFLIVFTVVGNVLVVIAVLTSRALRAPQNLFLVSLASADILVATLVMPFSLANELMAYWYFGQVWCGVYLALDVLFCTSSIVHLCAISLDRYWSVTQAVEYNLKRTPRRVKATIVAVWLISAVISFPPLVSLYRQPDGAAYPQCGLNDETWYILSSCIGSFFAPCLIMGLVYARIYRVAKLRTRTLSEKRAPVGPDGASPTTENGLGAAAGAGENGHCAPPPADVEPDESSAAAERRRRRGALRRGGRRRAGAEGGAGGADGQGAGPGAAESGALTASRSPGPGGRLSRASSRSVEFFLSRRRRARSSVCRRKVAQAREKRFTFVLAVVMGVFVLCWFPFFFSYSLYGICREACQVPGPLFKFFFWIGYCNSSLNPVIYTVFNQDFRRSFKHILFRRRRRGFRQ
As to the kind of experiment: Competition binding, [3H]rauwolscine, human α2C receptor. Put shortly:
as §1

Setting [4] is: [3H]nitrendipine, rat cardiac muscle membranes, SEM and n in lines below, read-out: pKi Ca (converted).
Where [5] appears, read: [3H]rauwolscine, LM(tk-) cell line L-α2A, SEM and n in lines below, read-out: pKi alpha-2 2a (converted).
[6] abbreviates: [3H]rauwolscine, LM(tk-) cell line L-α2C, SEM and n in lines below, read-out: pKi alpha-2 2c (converted).
[7] abbreviates: [3H]nitrendipine, rat cardiac muscle membrane fragments, L-type calcium channel, read-out: pKi Ca (converted).
The mark [8] stands for this setting: [3H]rauwolscine, human α2A receptor, LM(tk−) cells, read-out: pKi alpha-2 2a (converted).
Where [9] appears, read: [3H]rauwolscine, human α2C receptor, LM(tk−) cells, read-out: pKi alpha-2 2c (converted).

T1 sequence (P22002 whole entry, other chains not shown, the tested form may be a part): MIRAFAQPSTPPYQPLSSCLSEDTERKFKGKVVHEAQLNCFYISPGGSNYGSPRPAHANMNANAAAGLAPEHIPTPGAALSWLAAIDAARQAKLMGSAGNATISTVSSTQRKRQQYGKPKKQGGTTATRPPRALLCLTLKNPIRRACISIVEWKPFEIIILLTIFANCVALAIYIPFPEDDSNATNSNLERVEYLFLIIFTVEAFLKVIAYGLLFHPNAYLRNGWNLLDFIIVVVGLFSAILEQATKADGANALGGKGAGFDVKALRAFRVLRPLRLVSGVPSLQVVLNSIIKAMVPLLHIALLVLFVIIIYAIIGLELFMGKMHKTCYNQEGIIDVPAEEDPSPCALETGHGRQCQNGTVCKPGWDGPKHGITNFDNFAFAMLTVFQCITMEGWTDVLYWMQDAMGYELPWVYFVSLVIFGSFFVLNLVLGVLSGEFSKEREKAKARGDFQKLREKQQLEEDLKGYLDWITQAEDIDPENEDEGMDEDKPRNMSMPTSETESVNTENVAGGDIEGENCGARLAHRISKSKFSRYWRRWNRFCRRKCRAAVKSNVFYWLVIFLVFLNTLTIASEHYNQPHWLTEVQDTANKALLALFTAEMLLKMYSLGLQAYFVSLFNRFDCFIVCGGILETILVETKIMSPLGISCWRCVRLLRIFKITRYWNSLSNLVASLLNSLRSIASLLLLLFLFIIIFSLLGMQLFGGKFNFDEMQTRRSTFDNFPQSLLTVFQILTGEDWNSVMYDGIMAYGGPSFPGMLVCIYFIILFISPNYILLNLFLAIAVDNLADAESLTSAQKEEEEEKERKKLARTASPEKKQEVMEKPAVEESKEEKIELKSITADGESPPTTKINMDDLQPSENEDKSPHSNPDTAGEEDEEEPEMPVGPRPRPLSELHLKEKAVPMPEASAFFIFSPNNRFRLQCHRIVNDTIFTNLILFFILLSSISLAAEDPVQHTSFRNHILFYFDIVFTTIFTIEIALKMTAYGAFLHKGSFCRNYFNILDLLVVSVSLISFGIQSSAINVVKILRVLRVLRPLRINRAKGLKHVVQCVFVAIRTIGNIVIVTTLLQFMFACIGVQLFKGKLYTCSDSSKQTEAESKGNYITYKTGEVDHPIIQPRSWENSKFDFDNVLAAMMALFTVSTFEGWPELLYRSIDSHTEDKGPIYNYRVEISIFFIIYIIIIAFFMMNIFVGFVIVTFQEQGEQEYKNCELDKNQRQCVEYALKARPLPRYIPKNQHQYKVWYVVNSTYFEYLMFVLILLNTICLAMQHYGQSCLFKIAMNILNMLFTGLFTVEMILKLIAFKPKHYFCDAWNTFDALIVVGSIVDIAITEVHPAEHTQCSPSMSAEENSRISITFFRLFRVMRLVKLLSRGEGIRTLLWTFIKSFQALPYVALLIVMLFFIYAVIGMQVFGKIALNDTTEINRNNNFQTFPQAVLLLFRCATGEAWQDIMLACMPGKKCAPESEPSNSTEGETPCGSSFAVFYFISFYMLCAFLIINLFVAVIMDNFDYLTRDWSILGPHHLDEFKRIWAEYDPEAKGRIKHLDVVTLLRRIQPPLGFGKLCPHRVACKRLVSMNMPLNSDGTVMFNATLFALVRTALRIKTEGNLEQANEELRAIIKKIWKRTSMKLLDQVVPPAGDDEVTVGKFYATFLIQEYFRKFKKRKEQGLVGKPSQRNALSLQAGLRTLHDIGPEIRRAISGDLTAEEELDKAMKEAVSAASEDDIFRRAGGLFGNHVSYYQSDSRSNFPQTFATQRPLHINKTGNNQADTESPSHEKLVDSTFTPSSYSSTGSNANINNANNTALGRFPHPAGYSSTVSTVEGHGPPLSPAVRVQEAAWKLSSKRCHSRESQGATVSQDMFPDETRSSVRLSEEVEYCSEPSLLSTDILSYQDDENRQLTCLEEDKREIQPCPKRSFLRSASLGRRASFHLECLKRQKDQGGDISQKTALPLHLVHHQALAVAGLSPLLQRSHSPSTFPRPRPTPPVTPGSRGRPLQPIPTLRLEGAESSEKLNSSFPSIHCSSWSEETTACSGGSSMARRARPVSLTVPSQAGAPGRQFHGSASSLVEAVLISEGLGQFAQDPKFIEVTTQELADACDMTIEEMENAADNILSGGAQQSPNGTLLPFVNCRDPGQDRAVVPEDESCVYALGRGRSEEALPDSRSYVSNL
T1 sequence (P54290 25-944 partner limits assumed, other chains not shown): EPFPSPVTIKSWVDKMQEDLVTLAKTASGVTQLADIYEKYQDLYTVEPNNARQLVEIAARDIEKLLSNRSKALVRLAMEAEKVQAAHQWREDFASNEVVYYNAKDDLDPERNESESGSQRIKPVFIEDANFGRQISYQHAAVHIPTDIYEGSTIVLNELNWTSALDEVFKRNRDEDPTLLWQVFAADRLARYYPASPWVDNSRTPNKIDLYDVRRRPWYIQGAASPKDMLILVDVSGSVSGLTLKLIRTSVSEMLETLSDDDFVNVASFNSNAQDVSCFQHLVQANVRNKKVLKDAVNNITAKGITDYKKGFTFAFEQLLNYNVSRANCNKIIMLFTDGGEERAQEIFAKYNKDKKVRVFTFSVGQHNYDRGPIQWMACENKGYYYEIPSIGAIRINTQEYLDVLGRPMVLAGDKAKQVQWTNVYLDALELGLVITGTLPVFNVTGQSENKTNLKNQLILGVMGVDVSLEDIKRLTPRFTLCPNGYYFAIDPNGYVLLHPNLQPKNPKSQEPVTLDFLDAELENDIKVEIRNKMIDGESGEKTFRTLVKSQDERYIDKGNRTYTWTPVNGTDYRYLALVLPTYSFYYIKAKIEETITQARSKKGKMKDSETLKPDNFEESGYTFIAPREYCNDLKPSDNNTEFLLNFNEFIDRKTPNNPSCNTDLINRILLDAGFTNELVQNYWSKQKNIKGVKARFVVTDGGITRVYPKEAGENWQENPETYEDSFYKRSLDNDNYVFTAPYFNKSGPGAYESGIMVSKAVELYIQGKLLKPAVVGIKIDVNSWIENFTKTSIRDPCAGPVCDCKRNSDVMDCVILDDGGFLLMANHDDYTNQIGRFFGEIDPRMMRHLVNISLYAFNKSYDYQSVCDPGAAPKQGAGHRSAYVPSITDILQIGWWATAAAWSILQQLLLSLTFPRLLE
T1 sequence (P54290 945-1091 partner limits assumed, other chains not shown): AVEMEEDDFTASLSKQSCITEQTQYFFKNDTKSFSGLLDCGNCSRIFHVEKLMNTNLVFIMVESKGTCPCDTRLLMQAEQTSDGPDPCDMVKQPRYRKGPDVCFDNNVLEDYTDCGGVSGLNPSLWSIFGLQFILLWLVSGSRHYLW

For the compound `COC(=O)C1=C(C)NC(c2ccoc2)=C(C(=O)NCCCN2CCC(c3ccccc3)(c3ccccc3)CC2)C1c1ccc([N+](=O)[O-])cc1` (stereo not drawn) [Example 43, 2-(Furan-3-yl)-, 4-dihydro-5-methoxycarbonyl-6-methyl-4-(4-nitrophenyl)-3-(N-(3-(4,4-diphenylpiperidin-1-yl)propyl)carboxamidopyridine, hydrochloride salt], the Ki is 18.6 µM in experiment [1] (setting [4]), 0.661 µM in experiment [2] (setting [5]) and 0.398 µM in experiment [3] (setting [6]).
In the case of `COC(=O)C1=C(C)NC(C)=C(C(=O)N(C)CCCN2CCC(c3ccccc3)(c3ccccc3)CC2)C1c1ccc([N+](=O)[O-])cc1` (stereo not drawn) [Example 46, hydrochloride hemihydrate], the Ki is 7.41 µM in experiment [1] (pKi Ca), 0.676 µM in experiment [2] and 0.245 µM in experiment [3] (pKi alpha-2 2c).
The like results for `COC(=O)C1=C(C)NC(C)=C(C(=O)NCCN2CCC(c3ccccc3)(c3ccccc3)CC2)C1c1ccc([N+](=O)[O-])cc1` (stereo not drawn) [Example 52, 1,4-Dihydro-3-methoxycarbonyl-2,6-dimethyl-4-(4-nitrophenyl)-5-{N-[2-(4,4-diphenylpiperidin-1-yl)ethyl]}carboxamidopyridine hydrochloride hemihydrate] were, in that order, 5.13 µM, 0.513 µM and 0.263 µM.
Consider `CC1=C(C(N)=O)C(c2ccc([N+](=O)[O-])cc2)C(C(=O)NCCN2CCC(c3ccccc3)(c3ccccc3)CC2)=C(C)N1` (stereo not drawn) [Example 54, 5-Carboxamide-1,4-dihydro-2,6-dimethyl-4-(4-nitrophenyl)-3-{N-[2-(4,4-diphenylpiperidin-1-yl)ethyl]}carboxamidopyridine hydrochloride hydrate], for which the results for the Ki in experiment [1] (setting [4]), in experiment [2] (setting [5]) and in experiment [3] (setting [6]) were 58.9 µM, 0.468 µM and 0.158 µM, respectively.
For `CC1=C(C(N)=O)C(c2cccc([N+](=O)[O-])c2)C(C(=O)NCCCN2CCC(c3ccccc3)(c3ccccc3)CC2)=C(C)N1` (stereo not drawn) [Example 61, 5-Carboxamido-1,4-dihydro-2,6-dimethyl-4-(3-nitrophenyl)-3-{N-[3-(4,4-diphenylpiperidin-1-yl)propyl]}carboxamidopyridine], the values for the Ki in experiment [1] (setting [4]), in experiment [2] (setting [5]) and in experiment [3] (setting [6]) were 10.2 µM, 0.759 µM and 0.479 µM, respectively.
Turning to `CC1=C(C(=O)NCCCN2CCC(c3ccccc3)(c3ccccc3)CC2)C(c2ccc([N+](=O)[O-])cc2)c2c([nH]c(=O)[nH]c2=O)N1` (stereo not drawn) [Example 64], the figures for the Ki in experiment [1] (setting [4]), in experiment [2] (setting [5]) and in experiment [3] (setting [6]) were 97.7 µM, 0.692 µM and 0.479 µM, respectively.
Consider `CCC1=C(C(=O)NCCCN2CCC(c3ccccc3)(c3ccccc3)CC2)C(c2ccc([N+](=O)[O-])cc2)C(C(=O)OC)=C(C)N1` (stereo not drawn) [Example 73, 2-Ethyl-1,4-dihydro-5-methoxycarbonyl-6-methyl-4-(4-nitro) phenyl-3-(N-(3-(4,4-diphenylpiperidin-1-yl)propyl))carboxamidopyridine], for which the Ki was 0.759 µM in experiment [1] (pKi Ca), 0.794 µM in experiment [2] and 0.275 µM in experiment [3] (pKi alpha-2 2c).
For `COC(=O)C1=C(C)NC(c2ccccc2)=C(C(=O)NCCCN2CCC(c3ccccc3)(c3ccccc3)CC2)C1c1ccc([N+](=O)[O-])cc1` (stereo not drawn) [Example 78, 1,4-Dihydro-5-methoxycarbonyl-6-methyl-4-(4-nitro)phenyl-2-phenyl-3-(N-(3-(4,4-diphenylpiperidin-1-yl)propyl))carboxamidopyridine hydrochloride hydrate], in that order: 3.16 µM, 0.724 µM and 0.151 µM.
As for `CCC1=C(C(=O)NCCCN2CCC(c3ccccc3)(c3ccccc3)CC2)C(c2ccc([N+](=O)[O-])cc2)C(C(N)=O)=C(C)N1` (stereo not drawn) [Example 81, 5-carboxamido-2-ethyl-1,4-dihydro-6-methyl-4-(4-nitro)phenyl-3-(N-(3-(4,4-diphenylpiperidin-1-yl)propyl))carboxamidopyridine hydrochloride], the Ki was 32.4 µM in experiment [1] (setting [4]), 0.178 µM in experiment [2] (setting [5]) and 0.123 µM in experiment [3] (setting [6]).
Take `CCOC(=O)C1=C(CC(=O)NCCCN2CCC(c3ccccc3)(c3ccccc3)CC2)NC(C)=C(C(=O)OC)C1c1ccc([N+](=O)[O-])cc1` (stereo not drawn) [Example 89, 3-Ethoxycarbonyl-1,4-dihydro-5-methoxycarbonyl-6-methyl-4-(4-nitro)phenyl-2-(N-(3-(4,4,-diphenylpiperidin-1-yl)propyl)carboxamido)methylpyridine, fumarate salt]: the figures for the Ki in experiment [1] (pKi Ca), in experiment [2] and in experiment [3] (pKi alpha-2 2c) were 0.813 µM, 2.34 µM and 0.501 µM, respectively.
With `COC(=O)C1=C(C)N(C)C(C)=C(C(=O)OCCCN2CCC(c3ccccc3)(c3ccccc3)CC2)C1c1ccc([N+](=O)[O-])cc1` (stereo not drawn) [Example 92, 1,4-Dihydro-5-methoxycarbonyl-1,2,6-trimethyl-4-(4-nitrophenyl)-3-[3-(4,4-diphenylpiperidin-1-yl)propoxy]carbonylpyridine hydrochloride hydrate], the Ki is 4.17 µM in experiment [1] (pKi Ca), 3.16 µM in experiment [2] and 0.759 µM in experiment [3] (pKi alpha-2 2c).
For `COc1ccc(C2(c3ccccc3)CCN(CCCNC(=O)C3=C(C)NC(C)=C(C(N)=O)C3c3ccc([N+](=O)[O-])cc3)CC2)cc1` (stereo not drawn) [Example 98, 5-Carboxamido-1,4-dihydro-3-{N-[3-(4-(4-methoxyphenyl)-4-phenylpiperidin-1-yl)propyl]}carboxamido-2,6-dimethyl-4-(4-nitrophenyl)pyridine hydrochloride], the Ki in experiment [1] (setting [7]) was 1000 µM; in experiment [2] (setting [8]), 0.355 µM; in experiment [3] (setting [9]), 0.427 µM.
The like results for `CCC1=C(C(N)=O)C(c2ccc([N+](=O)[O-])cc2)C(C(=O)NCCCN2CCC(O)(c3ccccc3)CC2)=C(CC)N1` (stereo not drawn) [Example 100, 5-Carboxamido-2,6-diethyl-1,4-dihydro-3-{N-(3-(4-hydroxy-4-phenylpiperidin-1-yl)propyl]}carboxamido-4-(4-nitrophenyl)pyridine hydrochloride hydrate] were, in that order, 1000 µM, 0.794 µM and 1.78 µM.
In the case of `CCC1=C(C(N)=O)C(c2ccc([N+](=O)[O-])cc2)C(C(=O)NCCCN2CCC(c3ccc(OC)cc3)(c3ccc(OC)cc3)CC2)=C(CC)N1` (stereo not drawn) [Example 103, 5-Carboxamido-2,6-diethyl-1,4-dihydro-3-{N-[3-(4,4-bis-(4-methoxyphenyl)piperidin-1-yl)propyl]}carboxamido}-4-(4-nitrophenyl)pyridine hydrochloride], the results for the Ki in experiment [1] (pKi Ca), in experiment [2] and in experiment [3] (pKi alpha-2 2c) were 0.178 µM, 0.49 µM and 0.269 µM, respectively.
Regarding `CCC1=C(C(N)=O)C(c2ccc([N+](=O)[O-])cc2)C(C(=O)NCCCN2CCC3(CC2)C(=O)NCN3c2ccccc2)=C(CC)N1` (stereo not drawn) [Example 105, 5-Carboxamido-2,6-diethyl-1,4-dihydro-4-(4-nitrophenyl)-3-{N-[3-(1-phenyl-4-oxo-1,3,8-triazaspiro[4.3]decan-8-yl)propyl]}carboxamidopyridine hydrochloride hydrate], the Ki in experiment [1] (pKi Ca) was 6.61 µM; in experiment [2] it was 1.26 µM; in experiment [3] (pKi alpha-2 2c) it was 1.38 µM.
As to `CCC1=C(C(N)=O)C(c2ccc([N+](=O)[O-])cc2)C(C(=O)NCCCN2CCC(C)(c3ccccc3)CC2)=C(CC)N1` (stereo not drawn) [Example 106, 5-Carboxamido-2,6-diethyl-1,4-dihydro-3-{N-[3-(4-Methyl-4-phenylpiperidin-1-yl)propyl]}carboxamido-4-(4-nitrophenyl)pyridine hydrochloride hydrate], the Ki was 1000 µM in experiment [1] (setting [7]), 0.324 µM in experiment [2] (setting [8]) and 0.295 µM in experiment [3] (setting [9]).
As for `CCC1=C(C(=O)NCCCN2CCC(c3ccccc3)(c3ccccc3)CC2)C(c2cccc(OC)c2)C(C(=O)NCCCN2CCC(c3ccccc3)(c3ccccc3)CC2)=C(CC)N1` [Example 112, 2,6-Diethyl-1,4-dihydro-4-(3-methoxyphenyl)-3,5-bis(N-(3-(4,4-diphenylpiperidin-1-yl)propyl)carboxamido)-pyridine], the Ki in experiment [1] (setting [7]) was 0.0575 µM; in experiment [2] (setting [8]), 0.257 µM; in experiment [3] (pKi alpha-2 2c, [3H]rauwolscine, human α2C receptor, LM(tk−) cells), 0.269 µM.
